The values that follow come from patent publication US4160829A, “Antibacterial 1,2,4-oxadiazolylacetamido cephalosporins” (Gist-Brocades N.V., priority 1972, dated 1979).

For orientation: ED50 means the dose that gives a 50% effect, or the effect in half of the subjects. The LD50 is the dose expected to kill half of the subjects tested.

Data set [1] relates to Klebsiella pneumoniae. Description: protection test. It is filed as in vivo. Conditions: ip.
The subject of data set [2] is Prot.mirab. H 3. Description: agar serial dilution test. It is filed as cell-based, Proteus mirabilis. The following applies: Proteus mirabilis.
In data set [3] the test system is Salm.dubl. P 43. Description: agar serial dilution test. It is filed as cell-based, Salmonella dublin. Conditions: Salmonella enterica; agar serial dilution, 24 hours, 37° C.; read-out: minimal inhibitory concentration (MIC).
Data set [4] concerns Staph.aureus A 2000. Put plainly: agar serial dilution test. Type of data set: cell-based, Staphylococcus aureus. Conditions: Staphylococcus aureus, A2000, 24 h, agar serial dilution, 24 hours, 37° C.; read-out: minimal inhibitory concentration (MIC).
For data set [5], the system named is Pseud.aerug. H 10. Description: agar serial dilution test. Conditions: agar serial dilution, 24 hours, 37° C.; read-out: minimal inhibitory concentration (MIC). Type of data set: cell-based.
The subject of data set [6] is Bac.Subt.ATCC 6633. Description: agar serial dilution test. The following applies: Bacillus subtilis, ATCC6633, 24 h, agar serial dilution, 24 hours, 37° C.; read-out: minimal inhibitory concentration (MIC). It is filed as cell-based, Bacillus subtilis.
The subject of data set [7] is Kleb.pneum. A 809. Description: agar serial dilution test. It is filed as cell-based, Klebsiella pneumoniae. Conditions: Klebsiella pneumoniae; agar serial dilution, 24 hours, 37° C.; read-out: minimal inhibitory concentration (MIC).
The subject of data set [8] is Past.multo. A 723. Description: agar serial dilution test. Type of data set: cell-based, Pasteurella multocida. Conditions: Pasteurella multocida; agar serial dilution, 24 hours, 37° C.; read-out: minimal inhibitory concentration (MIC).
The subject of data set [9] is Salm.typh. R 127. Put plainly: micro serial dilution test. Type of data set: cell-based. The following applies: micro serial dilution (in brackets), about 18 hours, 30° C. or 37° C.; read-out: minimal inhibitory concentration (MIC). An excerpt:
Two drops of a stock solution of the test compound (antibiotic) in a known concentration were brought into the first hole of a test plate with 9 numbered holes with a sterile Pasteur pipette. After rinsing this pipette three times with a physiological NaCl-solution, two drops of a stock solution of the test organism in a culture medium were brought in all the holes except for hole 8. In the first hole, the solution of the tested compound had been half diluted, then by stirring the liquid in the first hole and adding two drops of this mixture to the second hole and so on until hole 8, dilutions of the test compound solution were obtained in geometrical progression. The hole 9 contained no antibiotic and served for checking the growth of the testogranism in a blank medium. The test plate was incubated at 30° C. or 37° C. for about 18 hours.

Data set [10] has as its system Pseud.aerug. Wyeth A 1058. Description: agar serial dilution test. Conditions: agar serial dilution, 24 hours, 37° C.; read-out: minimal inhibitory concentration (MIC). It is filed as cell-based.
For data set [11], the system named is Escherichia coli. Put plainly: protection test. Conditions: ip. Type of data set: in vivo.
The test system of data set [12] is Kleb.pneum. A 809. Description: micro serial dilution test. Type of data set: cell-based. The following applies: Klebsiella pneumoniae; micro serial dilution (in brackets), about 18 hours, 30° C. or 37° C.; read-out: minimal inhibitory concentration (MIC).
The nature of data set [13]: acute toxicity in mice. The following applies: mouse, in vivo, ip; mice (Swiss), one intraperitoneal administration. The method, then: (a) For sodium 7-[(3-methyl-1,2,4-oxadiazol-5-yl)-acetamido]-cephalosporanate (as prepared in Example 10), the acute toxicity was determined in mice (Swiss) with one intraperitoneal administration. The LD50 appeared to be >6000 mg/kg (Cephalotin-LD50 >6000 mg/kg).

Data set [14] concerns Staph. aureus pen.resistant. Description: protection test. Type of data set: in vivo. The following applies: Staphylococcus aureus, sc.
Data set [15] has as its system Shig.equir. T 3. Put plainly: agar serial dilution test. Conditions: 37° C.; for MIC: 24 h, read-out: minimal inhibitory concentration (MIC). Type of data set: cell-based.
Data set [16] deals with Pseud.aerug. 2396. Description: agar serial dilution test. It is filed as cell-based. Conditions: agar serial dilution, 24 hours, 37° C.; read-out: minimal inhibitory concentration (MIC).
Data set [17] deals with penicillin resistant Staphylococcus aureus strain. Description: protection test. Type of data set: in vivo. The following applies: sc. An excerpt:
The compound may preferably be used parenterally.

Data set [18] has as its system Prot.morg. 2241. Put plainly: agar serial dilution test. Type of data set: cell-based. The following applies: 24 h, agar serial dilution, 24 hours, 37° C.; read-out: minimal inhibitory concentration (MIC).
Data set [19] has as its system Prot.rettg. A 821. Description: agar serial dilution test. It is filed as cell-based, Proteus rettgeri. The following applies: Providencia rettgeri, 24 h, read-out: minimal inhibitory concentration (MIC).
Data set [20] concerns Staph.aureus A 321. Description: agar serial dilution test. It is filed as cell-based, Staphylococcus aureus. The following applies: Staphylococcus aureus, A321, 24 h, agar serial dilution, 24 hours, 37° C.; read-out: minimal inhibitory concentration (MIC).
The subject of data set [21] is Prot.mirab. L 93. Description: agar serial dilution test. Type of data set: cell-based, Proteus mirabilis. The following applies: Proteus mirabilis.
For data set [22], the system named is Bruc.melit. A 488. Description: microbe, parasite or virus in culture. It is filed as cell-based. The following applies: Brucella melitensis, 24 h, read-out: minimal inhibitory concentration (MIC).
In data set [23] the test system is Esch.coli U 20. Put plainly: agar serial dilution test. Type of data set: cell-based, Escherichia coli. The following applies: Escherichia coli.
The test system of data set [24] is Strep.haem. A 266. Description: agar serial dilution test. Type of data set: cell-based, Streptococcus haemolyticus. Conditions: Streptococcus; agar serial dilution, 24 hours, 37° C.; read-out: minimal inhibitory concentration (MIC).
For data set [25], the system named is Strep. faec. L 80. Description: agar serial dilution test. It is filed as cell-based, Streptococcus faecalis. Conditions: Enterococcus faecalis; agar serial dilution, 24 hours, 37° C.; read-out: minimal inhibitory concentration (MIC).
Data set [26] deals with Staph.aureus A 355. Put plainly: agar serial dilution test. Conditions: Staphylococcus aureus, A355, 24 h, read-out: minimal inhibitory concentration (MIC), agar serial dilution, 24 hours, 37° C.; penicillinase-producing strain.
The test system of data set [27] is Dipl.pneum. L 54. Description: agar serial dilution test. Type of data set: cell-based, Diplococcus pneumoniae. Conditions: Streptococcus pneumoniae; agar serial dilution, 24 hours, 37° C.; read-out: minimal inhibitory concentration (MIC).
Data set [28] deals with Proteus rettgeri. Description: protection test. It is filed as in vivo. The following applies: Providencia rettgeri, sc.
The subject of data set [29] is Staph.aureus A 355. Put plainly: micro serial dilution test. The following applies: Staphylococcus aureus, A355; micro serial dilution (in brackets), about 18 hours, 30° C. or 37° C.; penicillinase-producing strain; read-out: minimal inhibitory concentration (MIC). Type of data set: cell-based, Staphylococcus aureus.
For data set [30], the system named is Prot.mirab. A 1200. Description: agar serial dilution test. Type of data set: cell-based, Proteus mirabilis. Conditions: agar serial dilution, 24 hours, 37° C.
Data set [31] has as its system Salm.typh. R 127. Description: agar serial dilution test. Type of data set: cell-based. Conditions: 24 h, 37° C., read-out: minimal inhibitory concentration (MIC).
Data set [32] deals with Staph.aureus A 2000. Put plainly: micro serial dilution test. Type of data set: cell-based, Staphylococcus aureus. Conditions: Staphylococcus aureus, A2000, 18 h, micro serial dilution (in brackets), about 18 hours, 30° C. or 37° C.; read-out: minimal inhibitory concentration (MIC).
A short description of data set [33]: tests with mice, blood levels and urine activity.
Data set [34] relates to Staph.aureus A 2001. Description: agar serial dilution test. Type of data set: cell-based, Staphylococcus aureus. Conditions: Staphylococcus aureus, A2001, 24 h, agar serial dilution, 24 hours, 37° C.; read-out: minimal inhibitory concentration (MIC).
Data set [35] deals with Staph.aureus A 2001. Put plainly: micro serial dilution test. It is filed as cell-based, Staphylococcus aureus. Conditions: Staphylococcus aureus, A2001, 18 h, micro serial dilution (in brackets), about 18 hours, 30° C. or 37° C.; read-out: minimal inhibitory concentration (MIC).
The nature of data set [36]: stability in refluxing slightly moist diethyl ether (thin-layer chromatography). Type of data set: physicochemical. The following applies: refluxed 24 hours, read-out: destruction to 5-methyl-1,2,4-oxadiazol-3-yl-acetic acid. As for the experimental part:
Stability of 1,2,4-oxadiazol-3,5-diyl-bisacetic acid: A small sample was dissolved in slightly moist diethyl ether and the solution was refluxed for 24 hours.

Where [37] appears, read: 24 h, read-out: minimal inhibitory concentration (MIC), agar serial dilution, 24 hours, 37° C.
Where [38] appears, read: agar serial dilution, 24 hours, 37° C., read-out: minimal inhibitory concentration (MIC).

Values after ≈ are worked out from the molar mass of the structure shown. Like-named read-outs stand apart in the source and are kept apart here. Some results are limits rather than exact numbers.

With `CC(=O)OCC1=C(C(=O)O)N2C(=O)[C@@H](NC(=O)Cc3cccs3)[C@H]2SC1` [Cephalotin, reference compound], the ED50 in data set [1] is 0.8 mg/kg; in data set [11], above 300 mg/kg; in data set [14], 37.6 mg/kg; in [17], 1.3 mg/kg; in data set [28] it was 4.34 mg/kg. Besides, the MIC in [2] (setting [37]) was 12.5 µg/mL (≈ 31.5 µM); in data set [3], 1.5 µg/mL (≈ 3.78 µM); in data set [4], 0.5 µg/mL (≈ 1.26 µM); in data set [5], above 100 µg/mL; in data set [6], 0.12 µg/mL (≈ 0.303 µM); in data set [7], 0.7 µg/mL (≈ 1.77 µM). The MIC was 0.7 µg/mL (≈ 1.77 µM) in data set [8]; 3 µg/mL (≈ 7.57 µM) in data set [9]; above 100 µg/mL in data set [10]; 0.37 µg/mL (≈ 0.933 µM) in [12]; 1.5 µg/mL (≈ 3.78 µM) in [15]; above 100 µg/mL in data set [16]. Besides, the MIC in [18] is above 100 µg/mL; in data set [19] it was 12.5 µg/mL (≈ 31.5 µM); in [20], 0.5 µg/mL (≈ 1.26 µM); in data set [21] (setting [38]), 0.6 µg/mL (≈ 1.51 µM); in [22] it was 6 µg/mL (≈ 15.1 µM); in [23] (U20, agar serial dilution, 24 hours, 37° C., read-out: minimal inhibitory concentration (MIC)), 3 µg/mL (≈ 7.57 µM). The MIC in data set [24] worked out at 0.06 µg/mL (≈ 0.151 µM); in data set [25], 25 µg/mL (≈ 63.1 µM); in data set [26] it was 0.5 µg/mL (≈ 1.26 µM); in data set [27], 0.5 µg/mL (≈ 1.26 µM). In data set [13], this compound gave a median lethal dose (LD50) above 6000 mg/kg.
`COCc1noc(CC(=O)N[C@@H]2C(=O)N3C(C(=O)O)=C(COC(C)=O)CS[C@H]23)n1` [Example 37, 7-[3-methoxymethyl-1,2,4-oxadiazol-5-yl-acetamido]-cephalosporanic acid]: the MIC was 0.9 µg/mL (≈ 2.11 µM) in data set [29]; 25 µg/mL (≈ 58.6 µM) in data set [2] (setting [38]); 50 µg/mL (≈ 117 µM) in data set [30] (Proteus mirabilis, 24 h, read-out: minimal inhibitory concentration (MIC)); 3 µg/mL (≈ 7.04 µM) in data set [3]; 1.5 µg/mL (≈ 3.52 µM) in data set [4]; above 100 µg/mL in data set [5]. Also, the MIC in [6] is 0.12 µg/mL (≈ 0.281 µM); in data set [31], 12.5 µg/mL (≈ 29.3 µM); in data set [32], 0.6 µg/mL (≈ 1.41 µM); in data set [7] it was 3 µg/mL (≈ 7.04 µM); in data set [8], 1 µg/mL (≈ 2.35 µM); in [10], above 100 µg/mL. Further, the MIC in data set [15] is 3 µg/mL (≈ 7.04 µM); in [16], above 100 µg/mL; in data set [18] it was above 100 µg/mL; in data set [19] (agar serial dilution, 24 hours, 37° C.) it was 3 µg/mL (≈ 7.04 µM); in data set [19], 12.5 µg/mL (≈ 29.3 µM); in data set [20] it was 0.5 µg/mL (≈ 1.17 µM). The MIC in data set [21] (setting [37]) was 12.5 µg/mL (≈ 29.3 µM); in [21] (setting [38]), 6 µg/mL (≈ 14.1 µM); in data set [23] (U20, 24 h, read-out: minimal inhibitory concentration (MIC), agar serial dilution, 24 hours, 37° C.) it was 12.5 µg/mL (≈ 29.3 µM); in [24], 0.12 µg/mL (≈ 0.281 µM); in data set [25], 50 µg/mL (≈ 117 µM); in data set [34] it was 0.75 µg/mL (≈ 1.76 µM). The results for the MIC in data set [35], in data set [26] and in data set [27] were 0.45 µg/mL (≈ 1.06 µM), 1.5 µg/mL (≈ 3.52 µM) and 0.75 µg/mL (≈ 1.76 µM), respectively. Also, the “minimal inhibitory concentration (MIC)” value worked out at 100 µg/mL (≈ 235 µM) in [30] and 6 µg/mL (≈ 14.1 µM) in [15] (24 hours). For the same compound, the “blood levels (in words)” value in data set [33] is reported as “good blood levels”. The “urine activity against pathogenic germs (in words)” value in data set [33] is reported as “strong urine activity against pathogenic germs”. In addition, the ED50 in [17] (protection test, subcutanal administration, read-out: ED50) is 1.2 mg/kg.
For the compound `O=C(O)Cc1noc(CC(=O)O)n1` [Example 39, 1,2,4-oxadiazole-3,5-diyl-bisacetic acid], the degraded at 24 h in data set [36] was below 5%.
